Here are results for one compound from patent US10701931B2, “Mosquito activating formulations” (Commonwealth Scientific and Industrial Research Organisation, priority 2015, dated 2020).

The test system of one experiment is Anopheles stephensi. Kind of experiment: Y-tube olfactometer, measurement of attraction against CO2/1-octen-3-ol positive control. The class given is in vivo. The method, then:
Attraction to these components was compared to a standard “positive control” known to elicit a directional response in An. stephensi mosquitoes placed in an olfactometer. The standard used as a positive control is a mix of compressed air, 5% CO2 and an octenol source. Unpaired t-test was used to test for the differences in means for all data sets presented.
The MR4 strain of An. stephensi (New Delhi, India) was maintained at 27° C., 70% RH, 12:12 L:D and 30 min dawn/dusk periods). 4 to 7 day old female mosquitoes, that had never received a blood meal, were used in experiments. Mosquitoes were maintained on 10% sugar solution ad libitum but starved for 12 hr prior to testing.
The Y tube olfactometer is made entirely of glass and consists of a release chamber, the Y tube itself, and a trap chamber attached to each arm (FIG. 1). Each trap chamber is divided in two by a fine glass filter. On the far side of those filters, the trap chambers can connect to charcoal filters or to gas bags or gas cylinders. Air is pulled through the olfactometer by connecting the release chamber to a vacuum tap which vents the contents of the tube. Standard air flow (0.4 L/minute) is maintained using a 0.1-1.2 LPM flow meter (John Morris Pty, LTD). The air volume of the Y-tube is approximately 1 litre and is therefore replaced every 2.5 minutes.
1 μl 10^−4% 1-octen-3-ol in mineral oil (Sigma Aldrich) was spotted on 1 cm^2 Whatman filter paper.
5% CO2 by volume was added to a 10 L FlexFilm gasbag (SKC Inc.) of compressed air.
When a CO2/1-octen-3-ol mix was required, 5% CO2 was delivered by connecting the gas bag to the requisite Y tube arm and placing the 1-octen-3-ol treated filter paper between the gasbag inlet and the glass filter of the trap chamber.
All experiments were run under PC2 quarantine conditions, at 27° C., 70% RH, under infrared light. Observers were always in the same position during the tests, at the trap chamber end of the olfactometer, between the 2 arms of the Y tube.
Using an aspirator, 25-30 starved female An. stephensi were introduced into the release chamber (FIG. 1).
After each test, mosquitoes were carefully aspirated from the apparatus by disconnecting constituent parts. The apparatus was flushed with clean air (charcoal filters only) for 5 minutes before the next batch of stimuli was introduced.
A total of 10 replicates (different batches of mosquitoes) were run for each stimuli assessment. Treatment and control arms were alternated between replicates. After completion of 10 replicates, the apparatus was rinsed in acetone and allowed to dry overnight.
Once the range of doses that “activated” mosquitoes had been established, the capacity of those concentrations to initiate a directional response was tested. In this instance, experiments were conducted in comparison to a positive control of CO2/1-octen-3-ol [[…]]. […] A positive control was used to assess whether test stimuli were at least as attractive as a standard directional stimulus.

The subject of experiment [1] is Anopheles farauti maxillary palps. In words: Electropalpogram (EPG), non bloodfed females. The settings on record: chemicals at 1/10 concentrations, CO2 5%.
The test system of experiment [2] is Anopheles stephensi maxillary palps. Kind of experiment: Electropalpogram (EPG), non bloodfed females. How it is done:
In order to assess Y-tube olfactometry experiments and field trials using an independent technique and to investigate the physiological basis of the observed activation and attraction behaviour, electroanntennogram (EAG) and electropalpogram (EPG) studies were performed on A. stephensi female mosquitoes. EAG studies were also performed on Anopheles farauti, Culex annulirostris and Aedes aegypti female mosquitoes.
Five to eight days Anopheles stephensi, two to fourteen days old Culex annulirostris and Aedes aegypti as well as four days old Anopheles faraulti non-blooded females, fed on 10% sucrose ad-libitum and then starved for >12 hours, were used. Mosquito head was excised and placed on the reference electrode coated with electrode gel (Parker Laboratories, Orange, N.J.). The distal end of the antennae or palp (<0.5 mm), cut to ensure a good electrical contact, were carefully placed on the recording electrode (Syntech, Germany). Signals were fed to a 10× amplifier and processed with IDAC 4 and PC-based interface and EAG software package (Syntech, Germany).
Thus 1-octen-3-ol was used in the EAG analysis as a positive control with thio compounds, (E and Z)-1-methylthio-1-propene, 3-methyl-thio-1-propanol, ally methyl sulphide, and carbon dioxide (5%) and mineral oil (negative control). Pure chemicals were diluted in mineral oil to a 10 times v/v stock solution, from which decadal dilutions were made. A 10 μl aliquot of each solution was applied to a filter paper strip (1×3.5 cm; Whatman No. 4, Fisher Scientific) and the solvent was evaporated under a fume hood before inserting the paper strip into 5 ml disposable plastic syringe (Terumo syringes). A 500 ms pulse (5 ml/s) was delivered by stimulus controller CS-55 (Syntech, Germany) to deliver chemical stimulants to a humidified continuous air flow (10 ml/s) over the electrophysiolgical preparation. The chemicals were tested randomly and applied with 0.5-1 min intervals between stimulations.
Initial screening was performed using a 10 times dilution (1/10, v/v) source dose solution. Then 1-methylthio-1-propene and 1-octen-3-ol were selected for further dose-response study. A minimum of five mosquitoes were tested for each compound to calculate the average EAG amplitude±standard error (SE).

In the case of `CC=CSC` [MTPE, 1-methylthio-1-propene], the “Attractiveness relative to 1-octen-3-ol/CO2” value with Anopheles stephensi (at 0.0001%) was “more attractive”. Moreover, the “Attraction (against CO2 + 1-octen-3-ol)” value in the experiment on Anopheles stephensi (dilution 0.0001 (10^-4)%, An. stephensi females) is recorded as “Yes”. For the same compound, the “EPG response, comparison among tested chemicals” value is “strongest response” in experiment [1] and “strongest response” in experiment [2] (chemicals at 1/10 concentrations, CO2 5%). Moreover, the “EPG response compared to mineral oil control” value in experiment [2] (chemicals at 1/10 concentrations, CO2 5%, n=7) was “significant responses”. Besides, the “EPG response, dose dependence” value in experiment [2] (decadal dilutions, n=6) is “dose dependant”.
